Values joined by “and” are separate entries in the source; they are usually repeats but may differ in a detail not shown here. Equal values may be shown once.
Conditions: instrument: DT, stepped-field

Compound | collision cross section (N2) ([M+H]+) | collision cross section (N2) ([M+Na]+) | other results
OCC1OC(OC2C(CO)OC(OC3C(CO)OC(OC4C(CO)OC(OC5C(CO)OC(OC6C(CO)OC(OC7C(CO)OC(OC8C(CO)OC(OC9C(CO)OC(OC%10C(CO)OC(OC%11C(CO)OC(OC%12C(CO)OC(O)C(O)C%12O)C(O)C%11O)C(O)C%10O)C(O)C9O)C(O)C8O)C(O)C7O)C(O)C6O)C(O)C5O)C(O)C4O)C(O)C3O)C(O)C2O)C(O)C(O)C1O (stereo unspecified) [(Hex)12] | – | – | collision cross section (N2) ([M+H-H2O]+): 400.3 Å² and 422.9 Å²; collision cross section (N2) ([M+Na-H2O]+): 390.6 Å² and 410 Å²
C[C@H](N)C(=O)N[C@@H](Cc1ccccc1)C(=O)N[C@@H](CC(=O)O)C(=O)N[C@@H](CCC(=O)O)C(=O)N[C@@H](CCCCN)C(=O)O [AFDEK] | 238.3 Å² | – | –
CSCC[C@H](NC(=O)[C@H](C)N)C(=O)NCC(=O)N[C@@H](Cc1ccc(O)cc1)C(=O)N[C@@H](CCCNC(=N)N)C(=O)O [AMGYR] | 245 Å² | – | –
OC[C@H]1O[C@@H]2O[C@H]3[C@H](O)[C@@H](O)[C@@H](O[C@H]4[C@H](O)[C@@H](O)[C@@H](O[C@H]5[C@H](O)[C@@H](O)[C@@H](O[C@H]6[C@H](O)[C@@H](O)[C@@H](O[C@H]7[C@H](O)[C@@H](O)[C@@H](O[C@H]8[C@H](O)[C@@H](O)[C@@H](O[C@H]1[C@H](O)[C@H]2O)O[C@@H]8CO)O[C@@H]7CO)O[C@@H]6CO)O[C@@H]5CO)O[C@@H]4CO)O[C@@H]3CO [Beta-Cyclodextrin] | 301.3 Å² and 319.6 Å² | 319.7 Å² | collision cross section (N2) ([M+K]+): 320.3 Å²
CCC(C)[C@H](NC(=O)[C@H](CO)NC(=O)[C@H](C)NC(=O)[C@@H](N)CS)C(=O)N[C@@H](CCC(N)=O)C(=O)N[C@@H](CCCCN)C(=O)O (stereo partly specified) [CASIQK] | 252.8 Å² | – | –
CC(C)C[C@H](NC(=O)[C@H](Cc1c[nH]cn1)NC(=O)[C@@H](N)CC(=O)O)C(=O)N[C@H](C(=O)NCC(=O)N[C@@H](CCCNC(=N)N)C(=O)O)C(C)C [DHLVGR] | 249.4 Å² | – | –
CCC(C)[C@H](NC(=O)[C@@H](N)CC(=O)O)C(=O)N[C@H](C(=O)NCC(=O)N[C@@H](C)C(=O)N[C@H](C(=O)N[C@@H](CC(C)C)C(=O)N[C@@H](CCCCN)C(=O)O)C(C)C)C(C)C (stereo partly specified) [DIVGAVLK] | 291.8 Å² and 277.8 Å² | – | –
N=C(N)NCCC[C@H](NC(=O)[C@H](CCC(=O)O)NC(=O)CNC(=O)[C@@H](N)Cc1ccccc1)C(=O)O [FGER] | 217.1 Å² | – | –
CCC(C)[C@H](NC(=O)[C@H](CCC(N)=O)NC(=O)CN)C(=O)N[C@H](C(=O)NCC(=O)N[C@@H](CCCNC(=N)N)C(=O)O)C(C)C (stereo partly specified) [GQIVGR] | 245.5 Å² | – | –
CCC(C)[C@H](NC(=O)[C@@H](NC(=O)CN)C(C)C)C(=O)N[C@@H](Cc1ccccc1)C(=O)N[C@@H](Cc1ccc(O)cc1)C(=O)N[C@@H](CCC(=O)O)C(=O)N[C@@H](CO)C(=O)N[C@@H](Cc1c[nH]cn1)C(=O)NCC(=O)N[C@@H](CCCCN)C(=O)O (stereo partly specified) [GVIFYESHGK] | 332.9 Å² | – | –
CC(C)C[C@H](NC(=O)[C@@H](NC(=O)CN)C(C)C)C(=O)N[C@@H](Cc1c[nH]cn1)C(=O)N[C@@H](C)C(=O)N[C@H](C(=O)N[C@@H](CCCCN)C(=O)O)C(C)C [GVLHAVK] | 269.9 Å² | – | –
OC[C@H]1O[C@@H]2O[C@H]3[C@H](O)[C@@H](O)[C@@H](O[C@H]4[C@H](O)[C@@H](O)[C@@H](O[C@H]5[C@H](O)[C@@H](O)[C@@H](O[C@H]6[C@H](O)[C@@H](O)[C@@H](O[C@H]7[C@H](O)[C@@H](O)[C@@H](O[C@H]8[C@H](O)[C@@H](O)[C@@H](O[C@H]9[C@H](O)[C@@H](O)[C@@H](O[C@H]1[C@H](O)[C@H]2O)O[C@@H]9CO)O[C@@H]8CO)O[C@@H]7CO)O[C@@H]6CO)O[C@@H]5CO)O[C@@H]4CO)O[C@@H]3CO [Gamma-Cyclodextrin] | 322.6 Å² | 322.1 Å² | collision cross section (N2) ([M+Cs]+): 338.2 Å²; collision cross section (N2) ([M+K]+): 324.8 Å²; collision cross section (N2) ([M+Li]+): 317.7 Å²; collision cross section (N2) ([M+Rb]+): 327.3 Å²
CCCCCCCCCCCCC=CC[C@@H](O)[C@H](CO[C@@H]1O[C@H](CO)[C@@H](O)C(O)C1O)NC(=O)CCCCCCCCCCCCCCC (stereo partly specified) [GlcCer(34:1)] | – | 277.3 Å² | –
CCCCCCCCCCCCC=CC[C@@H](O)[C@H](CO[C@@H]1O[C@H](CO)[C@@H](O)C(O)C1O)NC(=O)CC=CCCCCCCCCCCCCCCCC (stereo partly specified) [GlcCer(38:2)] | – | 291.4 Å² | –
CCCCCCCCCCCCCCCCCCCCCC(=O)N[C@@H](CO[C@@H]1O[C@H](CO)[C@@H](O)C(O)C1O)[C@H](O)CCCCCCCCCCCCCCC (stereo partly specified) [GlcCer(40:0)] | – | 302.3 Å² | –
CCCCCCCCCCCCC=CC[C@@H](O)[C@H](CO[C@@H]1O[C@H](CO)[C@@H](O)C(O)C1O)NC(=O)CC=CCCCCCCCCCCCCCCCCCCC (stereo partly specified) [GlcCer(41:2)] | – | 299.6 Å² | –
CCCCCCCCCCCCC=CC[C@@H](O)[C@H](CO[C@@H]1O[C@H](CO)[C@@H](O)C(O)C1O)NC(=O)CC=CCC=CCCCCCCCCCCCCCCCCC (stereo partly specified) [GlcCer(42:3)] | – | 302.3 Å² | –

Compound | collision cross section (N2) ([M+H]+) | collision cross section (N2) ([M+Na]+) | other results
CCCCCCCCCCCCC=CC[C@@H](O)[C@H](CO[C@@H]1O[C@H](CO)[C@@H](O)C(O)C1O)NC(=O)CC=CCC=CCCCCCCCCCCCCCCCCCC (stereo partly specified) [GlcCer(43:3)] | – | 306.1 Å² | –
CC(=O)NC1C(OC2C(O)C(CO)OC(OC(C(O)CO)C(O)C(O)C=O)C2O)OC(CO)C(O)C1O (stereo unspecified) [HexNAc-(Hex)2] | – | 220 Å² | collision cross section (N2) ([M+Na-H2O]+): 216.3 Å²
CC(=O)NC1C(O)OC(CO)C(O)C1OC1OC(CO)C(O)C(O)C1O (stereo unspecified) [HexNAc-Hex] | – | 190.2 Å² | collision cross section (N2) ([M+K]+): 191.1 Å²; collision cross section (N2) ([M+Na-H2O]+): 184.3 Å²
OC[C@H]1O[C@H](O[C@H]2[C@H](O)[C@@H](O)[C@@H](O[C@H]3[C@H](O)[C@@H](O)[C@@H](O[C@H]4[C@H](O)[C@@H](O)[C@@H](O[C@H]5[C@H](O)[C@@H](O)[C@@H](O[C@H]6[C@H](O)[C@@H](O)[C@@H](O[C@H]7[C@H](O)[C@@H](O)[C@@H](O)O[C@@H]7CO)O[C@@H]6CO)O[C@@H]5CO)O[C@@H]4CO)O[C@@H]3CO)O[C@@H]2CO)[C@H](O)[C@@H](O)[C@@H]1O [Maltoheptaose] | 303.3 Å² | 303.1 Å² | collision cross section (N2) ([M+K]+): 303.4 Å²
OC[C@H]1O[C@H](O[C@H]2[C@H](O)[C@@H](O)[C@@H](O[C@H]3[C@H](O)[C@@H](O)[C@@H](O[C@H]4[C@H](O)[C@@H](O)C(O)O[C@@H]4CO)O[C@@H]3CO)O[C@@H]2CO)[C@H](O)[C@@H](O)[C@@H]1O (stereo partly specified) [Maltotetraose] | 238.3 Å² | 235.3 Å² | –
OC[C@H]1O[C@H](O[C@H]2[C@H](O)[C@@H](O)[C@@H](O[C@H]3[C@H](O)[C@@H](O)[C@@H](O)O[C@@H]3CO)O[C@@H]2CO)[C@H](O)[C@@H](O)[C@@H]1O [Maltotriose] | 216.3 Å² | 212.8 Å² | collision cross section (N2) ([M+K]+): 216.8 Å²
CC/C=C\C/C=C\C/C=C\C/C=C\C/C=C\CCCC(=O)O[C@H](COC(=O)CCCC/C=C\C/C=C\C/C=C\C/C=C\CC)COP(=O)([O-])OCC[N+](C)(C)C [PC(38:9)] | – | 297.8 Å² | –
CCC=CCC=CCC=CCC=CCC=CCC=CCC(=O)OC[C@H](COP(=O)(O)OCC[N+](C)(C)C)OC(=O)CC=CCC=CCC=CCC=CCC=CCC=CCC [PC(42:12)] | – | 303.9 Å² | –
CCCCC=CCC=CCC=CCC(=O)OC[C@H](COP(=O)(O)OCCN)OC(=O)CC=CCC=CCC=CCCCC [PE(28:6)] | – | – | collision cross section (N2) ([M+K]+): 248.7 Å²
CCCC/C=C\CCCCCCCC(=O)OC[C@H](COP(=O)(O)OCCN)OC(=O)CCCCCC/C=C\C/C=C\C/C=C\CCCCC [PE(34:4)] | – | 273.6 Å² | –
CCCCC/C=C\C/C=C\C/C=C\CCCCC(=O)OC[C@H](COP(=O)(O)OCCN)OC(=O)CCCCCCC/C=C\CCCCCCCCC [PE(37:4)] | – | – | collision cross section (N2) ([M+K]+): 284.7 Å²
CCCCC/C=C\C/C=C\C/C=C\C/C=C\CCCC(=O)O[C@H](COC(=O)CCCC/C=C\C/C=C\C/C=C\CCCCC)COP(=O)(O)OCCN [PE(38:7)] | – | 283.7 Å² | collision cross section (N2) ([M+K]+): 287 Å²
CCCCC/C=C\C/C=C\CCCCCCCC(=O)O[C@H](COCCCCCCCCCCCCCCCCCC)COP(=O)(O)OCCN [PE(o36:2)] | – | 287.3 Å² | –
CC/C=C\C/C=C\C/C=C\C/C=C\CCCCC(=O)OC[C@H](COP(=O)(O)OC[C@H](N)C(=O)O)OC(=O)CCCCC/C=C\C/C=C\C/C=C\C/C=C\CCCCC [PS(40:8)] | – | 293.6 Å² | –
CCCCC/C=C\C/C=C\C/C=C\C/C=C\CCCCCC(=O)OC[C@H](COP(=O)(O)OC[C@H](N)C(=O)O)OC(=O)CCC/C=C\C/C=C\C/C=C\C/C=C\CCCCC [PS(42:8)] | – | 301.3 Å² | –
CC/C=C\C/C=C\C/C=C\C/C=C\C/C=C\C/C=C\CCC(=O)O[C@H](COC(=O)CCC/C=C\C/C=C\C/C=C\C/C=C\CCCCC)COP(=O)(O)OC[C@H](N)C(=O)O [PS(42:10)] | – | 297.1 Å² | –
CC/C=C\C/C=C\C/C=C\C/C=C\C/C=C\C/C=C\CCC(=O)OC[C@H](COP(=O)(O)OC[C@H](N)C(=O)O)OC(=O)CCC/C=C\C/C=C\C/C=C\C/C=C\C/C=C\CC [PS(42:11)] | – | 294.2 Å² | –
